Consider 16 compounds from patent US9034899B2, “Aryl, heteroaryl, and heterocycle substituted tetrahydroisoquinolines and use thereof” (Albany Molecular Research, Inc., priority 2009, dated 2015).

One experiment has as its target hNET (Homo sapiens (Human), UniProt P23975). In words: NET radioligand binding assay ([3H]nisoxetine, HEK-293 membranes). Particulars: for IC50: (+)-enantiomers; for inhibition at 0.1 µM: 100 nM, NET IC50 with footnote *. As for the experimental part: (§1) Recombinant HEK-293 cells expressing either the hSERT, hDAT, or hNET proteins were harvested from T-175 flasks as follows. The medium was removed from the flasks and the cells rinsed with HBSS without Ca and without Mg. The cells were then incubated for 5-10 minutes in 10 mM Tris-Cl, pH 7.5, 5 mM EDTA before the cells were lifted with a combination of pipetting and scraping, as needed. The cell suspension was collected into centrifuge bottles and homogenized for 30 seconds with a Polytron homogenizer. The suspension was centrifuged for 30 minutes at 32,000×g, 4° C. The supernatant was decanted and the pellet resuspended and homogenized in 50 mM Tris-Cl, pH 7.5, 1 mM EDTA for 10 seconds. The suspension was then centrifuged again for 30 minutes at 32,000×g, 4° C. The supernatant was decanted and the pellet resuspended in 50 mM Tris-Cl, pH 7.5, 1 mM EDTA and briefly homogenized. A Bradford assay (Bio-rad) was performed and the membrane preparation diluted to 2 mg/ml with 50 mM Tris-Cl, pH 7.5, 1 mM EDTA. Aliquots were prepared, and then frozen and stored at −80° C.
(§2) Compounds were dissolved in 100% DMSO at a concentration 100 times the desired highest assay concentration, serially diluted 1:3 in 100% DMSO, and 1.0 μl/well of each solution was dispensed to a Nunc polypropylene, round bottom, 384-well plate. 100% inhibition is defined with 1.0 μl/well of 10 mM desipramine dissolved in DMSO. 50 μl/well of a 2× membrane preparation (0.4 mg/ml in 50 mM Tris-Cl, pH 7.5, 120 mM NaCl, 5 mM KCl) and 50 μl/well of a 2× radioligand solution (4 nM [^3H]nisoxetine in 50 mM Tris-Cl, pH 7.5, 120 mM NaCl, 5 mM KCl) were added to the well and the reaction incubated for 1 hour at room temperature. The contents of the assay plate were then transferred to a Millipore MultiscreenHTS GF/B filter plate which was pretreated with 0.5% PEI for at least one hour. The plate was vacuum filtered and washed with 7 washes of 100 μl/well 50 mM Tris-Cl, pH 7.5, 120 mM NaCl, 5 mM KCl chilled to 4° C. The filtration and washing were completed in less than 90 seconds. The plates were air-dried overnight, 12 μl/well of MicroScint scintillation fluid added, and the plates counted in a Trilux.
(§3) The raw data was normalized to percent inhibition using control wells defining 0% (DMSO only) and 100% (selective inhibitor) inhibition which were run on each plate. Each plate was run in triplicate, and the concentration response curve thus generated was fit using the four-parameter dose response equation, Y=Bottom+(Top-Bottom)/(1+10^((LogIC50−X)*HillSlope)) in order to determine the IC50 value for each compound. The radioligand concentration chosen for each assay corresponds to the Kd concentration determined through saturation binding analysis for each assay.

For a further experiment, the target named is hSERT (Homo sapiens (Human), UniProt P31645). In words: SERT radioligand binding assay ([125I]RTI-55, HEK-293 membranes). Particulars: for inhibition at 0.1 µM: 100 nM, SERT IC50 with footnote *. The method, then:
as §1, with “The” for “Recombinant HEK-293 cells expressing either the hSERT, hDAT, or hNET proteins were harvested from T-175 flasks as follows. The”
as §2, with “0.4” for “1.0”, “100% inhibition is defined with 1.0 μl/well of 10 mM desipramine dissolved in DMSO. 50 μl/well of a 2× membrane preparation (0.4 mg/ml in 50 mM Tris-Cl, pH 7.5, 120 mM NaCl, 5 mM KCl) and 50 μl/well of a 2× radioligand solution (4 nM [^3H]nisoxetine in 50 mM Tris-Cl, pH 7.5, 120 mM NaCl, 5 mM KCl) were added to the well and the reaction incubated for 1 hour at room temperature.” left out
Each plate was run in triplicate, and the concentration response curve thus generated was fit using the four-parameter dose response equation, Y=Bottom+(Top-Bottom)/(1+10^((LogIC50−X)*HillSlope)) in order to determine the IC50 value for each compound. The radioligand concentration chosen for each assay corresponds to the Kd concentration determined through saturation binding analysis for each assay.

The target in a further experiment is hDAT (Homo sapiens (Human), UniProt Q01959). In words: DAT radioligand binding assay ([125I]RTI-55, HEK-293 membranes). Particulars: for inhibition at 0.1 µM: 100 nM, DAT IC50 with footnote *. As for the experimental part: as §1
Compounds were dissolved in 100% DMSO at a concentration 100 times the desired highest assay concentration, serially diluted 1:3 in 100% DMSO, and 0.4 μl/well of each solution was dispensed to a Nunc polypropylene, round bottom, 384-well plate. 100% inhibition is defined with 0.4 μl/well of 1 mM GBR-12935 dissolved in DMSO. 20 ul/well of a 2× membrane preparation (12.5 μg/ml in 30 mM sodium phosphate buffer, pH 7.9 at 4° C.) and 20 μl/well of a 2× radioligand solution ([…] [^125I]RTI-55 in 30 mM sodium phosphate buffer, pH 7.9 at 4° C.) were added to the well and the reaction incubated for 1 hour at room temperature. The contents of the assay plate were then transferred to a Millipore MultiscreenHTS GF/B filter plate which was pretreated with 0.5% PEI for at least one hour. The plate was vacuum-filtered and washed with 7 washes of 100 μl/well 50 mM Tris-Cl, pH 7.5, 120 mM NaCl, 5 mM KCl chilled to 4° C. The filtration and washing were completed in less than 90 seconds. The plates were air-dried overnight, 12 μl/well of MicroScint scintillation fluid added, and the plates counted in a Trilux.
as §3

Where [1] appears, read: (+)-enantiomers, read-out: SERT IC50.
Where [2] appears, read: (+)-enantiomers, read-out: DAT IC50.

Read-outs that look alike come from different tables or passages of the source.

hSERT, sequence (P31645 whole entry): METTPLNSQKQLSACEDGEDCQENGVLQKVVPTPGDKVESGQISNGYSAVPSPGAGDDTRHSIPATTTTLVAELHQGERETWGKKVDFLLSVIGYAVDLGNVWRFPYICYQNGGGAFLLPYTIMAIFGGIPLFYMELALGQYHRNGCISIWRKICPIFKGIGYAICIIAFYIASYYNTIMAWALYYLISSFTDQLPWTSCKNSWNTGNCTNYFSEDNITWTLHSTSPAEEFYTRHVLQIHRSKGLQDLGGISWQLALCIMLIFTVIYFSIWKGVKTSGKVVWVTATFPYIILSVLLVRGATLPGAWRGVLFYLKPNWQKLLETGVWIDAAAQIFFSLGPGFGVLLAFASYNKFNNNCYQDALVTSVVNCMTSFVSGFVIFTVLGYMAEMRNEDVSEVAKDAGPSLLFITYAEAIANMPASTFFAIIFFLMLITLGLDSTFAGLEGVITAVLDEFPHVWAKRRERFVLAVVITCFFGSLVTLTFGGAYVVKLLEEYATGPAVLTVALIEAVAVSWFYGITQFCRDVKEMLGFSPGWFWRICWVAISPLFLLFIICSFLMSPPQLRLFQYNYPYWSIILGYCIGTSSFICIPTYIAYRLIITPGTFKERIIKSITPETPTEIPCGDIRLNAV
hDAT, sequence (Q01959 whole entry): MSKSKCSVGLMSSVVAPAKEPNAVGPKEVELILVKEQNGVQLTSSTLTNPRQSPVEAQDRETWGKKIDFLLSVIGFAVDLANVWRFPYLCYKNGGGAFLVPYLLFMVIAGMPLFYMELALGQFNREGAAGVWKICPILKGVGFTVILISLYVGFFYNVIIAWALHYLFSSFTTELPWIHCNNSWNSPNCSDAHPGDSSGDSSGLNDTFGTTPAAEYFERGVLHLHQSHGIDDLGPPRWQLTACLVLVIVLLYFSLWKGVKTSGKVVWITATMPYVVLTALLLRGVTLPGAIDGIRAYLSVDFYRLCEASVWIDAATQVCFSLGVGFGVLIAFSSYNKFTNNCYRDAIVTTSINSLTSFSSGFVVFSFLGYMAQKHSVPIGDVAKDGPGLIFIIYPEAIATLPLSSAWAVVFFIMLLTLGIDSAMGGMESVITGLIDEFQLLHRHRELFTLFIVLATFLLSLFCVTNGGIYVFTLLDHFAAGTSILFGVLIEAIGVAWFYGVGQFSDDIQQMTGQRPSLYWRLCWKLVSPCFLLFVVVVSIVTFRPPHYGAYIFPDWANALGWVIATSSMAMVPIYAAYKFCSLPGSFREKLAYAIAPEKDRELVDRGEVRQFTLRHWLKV
hNET, sequence (P23975 whole entry): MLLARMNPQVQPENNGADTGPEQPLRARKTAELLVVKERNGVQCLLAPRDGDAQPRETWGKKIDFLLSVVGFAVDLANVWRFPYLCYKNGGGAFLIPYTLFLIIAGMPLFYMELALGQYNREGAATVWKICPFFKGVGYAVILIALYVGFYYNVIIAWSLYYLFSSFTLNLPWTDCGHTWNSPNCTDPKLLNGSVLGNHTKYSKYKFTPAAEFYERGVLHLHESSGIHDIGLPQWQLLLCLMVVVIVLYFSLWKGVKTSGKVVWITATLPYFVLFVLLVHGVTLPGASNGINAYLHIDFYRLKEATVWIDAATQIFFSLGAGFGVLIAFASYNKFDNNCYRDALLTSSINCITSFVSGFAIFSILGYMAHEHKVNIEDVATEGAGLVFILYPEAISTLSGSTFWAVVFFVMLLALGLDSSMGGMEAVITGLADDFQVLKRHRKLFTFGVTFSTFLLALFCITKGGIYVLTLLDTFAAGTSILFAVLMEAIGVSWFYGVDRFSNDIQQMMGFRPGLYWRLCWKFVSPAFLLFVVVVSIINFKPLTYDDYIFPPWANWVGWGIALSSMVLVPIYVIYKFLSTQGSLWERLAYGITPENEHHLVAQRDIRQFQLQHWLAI

`CC1(C)NCC(c2ccc(Cl)c(Cl)c2)c2ccc(-c3ccc(C(F)(F)F)nn3)cc21` (single isomer, unassigned) [Example 10, 4-(3,4-dichlorophenyl)-7-(6-(trifluoromethyl)pyridazin-3-yl)-1,1-dimethyl-1,2,3,4-tetrahydroisoquinoline]: the IC50 (in general, the concentration needed to halve the response being measured) on hNET was 549 nM.
As for `CC1(C)NCC(c2ccc(Cl)cc2)c2ccc(-c3ccc(C(F)(F)F)nn3)cc21` (single isomer, unassigned) [Example 35, 4-(4-chlorophenyl)-1,1-dimethyl-7-(6-(trifluoromethyl)pyridazin-3-yl)-1,2,3,4-tetrahydroisoquinoline], the 50% inhibitory concentration (IC50) at hSERT is 61.1 nM; on hNET it was 1020 nM; on hDAT, 80.2 nM.
Take `CNc1ccc(-c2ccc3c(c2)CNCC3c2ccc(F)cc2)nn1` (single isomer, unassigned; (+)) [Example 3, (+)-6-(4-(4-fluorophenyl)-1,2,3,4-tetrahydroisoquinolin-7-yl)-N-methylpyridazin-3-amine]: the concentration for half-maximal inhibition (IC50) at hSERT (setting [1]) amounted to 53.8 nM; on hNET, 150 nM; at hDAT (setting [2]) it was 90.5 nM.
In the case of `FC(F)(F)c1ccc(-c2ccc3c(c2)NCCC3c2ccc(Cl)cc2)nn1` (single isomer, unassigned; (+)) [Example 4, (+)-4-(4-chlorophenyl)-7-(6-(trifluoromethyl)pyridazin-3-yl)-1,2,3,4-tetrahydroquinoline], the IC50 on hSERT (setting [1]) stood at 21.4 nM; on hNET, 47.3 nM; on hDAT (setting [2]) it was 138 nM.
As for `Nc1ccc(-c2ccc3c(c2)CNCC3c2ccc(Cl)cc2)nn1` (single isomer, unassigned; (+)) [Example 5, (+)-6-(4-(4-chlorophenyl)-1,2,3,4-tetrahydroisoquinolin-7-yl)pyridazin-3-amine], the values for the concentration for half-maximal inhibition (IC50) on hSERT (setting [1]), at hNET and on hDAT (setting [2]) were 15.8 nM, 63.1 nM and 31.2 nM, respectively.
Turning to `Fc1cc2c(cc1-c1ccc(C(F)(F)F)nn1)CNCC2c1ccc(Cl)c(Cl)c1` (single isomer, unassigned; (+)) [Example 29, (+)-4-(3,4-dichlorophenyl)-6-fluoro-7-(6-(trifluoromethyl)pyridazin-3-yl)-1,2,3,4-tetrahydroisoquinoline], the IC50 is 29.7 nM on hSERT (setting [1]), 34.1 nM at hNET and 78.3 nM at hDAT (setting [2]).
`Fc1cc2c(cc1-c1ccc(OC(F)F)nn1)CNCC2c1ccc(Cl)c(Cl)c1` (single isomer, unassigned; (+)) [Example 31, (+)-4-(3,4-dichlorophenyl)-7-(6-(difluoromethoxy)pyridazin-3-yl)-6-fluoro-1,2,3,4-tetrahydroisoquinoline]: the IC50 at hSERT (setting [1]) is 15.9 nM; on hNET, 9.8 nM; on hDAT (setting [2]), 33 nM.
With `Fc1cc2c(cc1-c1ccc3ncnn3c1)CNCC2c1ccc(Cl)c(Cl)c1` (single isomer, unassigned; (+)) [Example 39, (+)-7-([1,2,4]triazolo[1,5-a]pyridin-6-yl)-4-(3,4-dichlorophenyl)-6-fluoro-1,2,3,4-tetrahydroisoquinoline], the IC50 at hSERT (setting [1]) was 14.1 nM; on hNET, 70.4 nM; at hDAT (setting [2]), 83.2 nM.
In the case of `Cc1ccc(C2CCNc3cc(-c4ccc(C)nn4)ccc32)cc1` (stereo not shown) [Example 1, 7-(6-methylpridazin-3-yl)-4-p-tolyl-1,2,3,4-tetrahydroquinoline], the IC50 at hSERT (setting [1]) was 27.9 nM; at hNET it was 174 nM; at hDAT (setting [2]) it was 64.5 nM.
Consider `Nc1ccc(-c2ccc3c(c2)CNCC3c2ccc(F)cc2)nn1` (stereo not shown) [Example 2, 6-(4-(4-fluorophenyl)-1,2,3,4-tetrahydroisoquinolin-7-yl)pyridazin-3-amine], for which the IC50 on hSERT (setting [1]) amounted to 144 nM; at hNET, 360 nM; at hDAT (setting [2]), 89.4 nM.
Turning to `CC1NCC(c2ccc(Cl)cc2)c2ccc(-c3ccc(Cl)nn3)cc21` (stereo not shown) [Example 6, 4-(4-Chloro-phenyl)-7-(6-chloro-pyridazin-3-yl)-1-methyl-1,2,3,4-tetrahydro-isoquinoline], the inhibition – broadly, the share of the control response that was lost under treatment – at 0.1 µM is 35% on hSERT, 0% at hNET and 9% at hDAT.
Consider `CC1NCC(c2ccc(Cl)cc2)c2ccc(-c3cccnn3)cc21` (stereo not shown) [Example 7, 4-(4-Chloro-phenyl)-7-(pyridazin-3-yl)-1-methyl-1,2,3,4-tetrahydro-isoquinoline], for which the inhibition at 0.1 µM on hSERT is 35%; at hNET, 0%; at hDAT it was 16%.
With `COc1ccc(-c2ccc3c(c2)C(C)NCC3c2ccc(Cl)cc2)nn1` (stereo not shown) [Example 8, 4-(4-Chloro-phenyl)-7-(6-methoxy-pyridazin-3-yl)-1-methyl-1,2,3,4-tetrahydro-isoquinoline], the inhibition at 0.1 µM at hSERT is 59%; at hNET it was 49%; on hDAT it was 30%.
Consider `FC(F)(F)c1ccc(-c2ccc3c(c2)CNCC3c2ccc(Cl)c(Cl)c2)nn1` (stereo not shown) [Example 11, 4-(3,4-dichlorophenyl)-7-(6-(trifluoromethyl)pyridazin-3-yl)-1,2,3,4-tetrahydroisoquinoline], for which the figures for the half-inhibitory concentration (IC50) on hSERT (setting [1]), at hNET and on hDAT (setting [2]) were 10 nM, 13 nM and 80 nM, respectively.
Consider `N#Cc1cccc(-c2ccc3c(c2)CNCC3c2ccc(Cl)c(Cl)c2)c1` (stereo not shown) [Example 15, 3-(4-(3,4-dichlorophenyl)-1,2,3,4-tetrahydroisoquinolin-7-yl)benzonitrile], for which the IC50 at hSERT (setting [1]) came out at 14 nM; at hNET, 86 nM; on hDAT (setting [2]) it was 213 nM.
On the same counts, the results for `CS(=O)(=O)c1ccc(-c2ccc3c(c2)CNCC3c2ccc(Cl)c(Cl)c2)cc1` (stereo not shown) [Example 16, 4-(3,4-dichlorophenyl)-7-(4-(methylsulfonyl)phenyl)-1,2,3,4-tetrahydroisoquinoline] are 20 nM, 13 nM and 77 nM.
